This is an account of results in patent US6428654B1, “Fungicidal method” (Hercules Incorporated, priority 2000, dated 2002).

“And” between values parts separate entries of the source, which are not always exact repeats. Equal entries are not always repeated.

This assay deals with Aspergillus niger (ATCC 6275). Nature of the assay: Microtiter XTT growth inhibition assay. In kind it is cell-based. The note with it: 37° C. 24 hours, XTT read at 465 nm, duplicate plates (Plate 1, Plate 2). The procedure: Preparation of the Spore Inoculum—Two sterile petri dishes containing potato dextrose agar are inoculated with Aspergillus niger (ATCC 6275). The plates are incubated for at least 48 hours at 35+1 ° C. At the end of the incubation period, the plates are checked for mycelia and fruiting bodies of the fungus. To prepare the spore-mycelial suspension, the agar surface is scraped with a sterile cotton tip swab. The spores are suspended from the cotton swab in a sterile test tube containing a solution of 0.85% saline and 0.01% Tween 80 (v/v). The spore-mycelial suspension is shaken or vortexed to break up spore and mycelial clumps. Prior to the addition of the spore-mycelial suspension to the test tube containing saline and Tween, a spectrophotometer is set to 650 nm and the absorbance reading is balanced to zero. The optical density (absorbance) of the spore-mycelial suspension is measured in the spectrophotometer. If necessary, the optical density is adjusted to 0.29 absorbance units by addition of diluent or spores. At an optical density of 0.29 absorbance units (at 650 nm), the concentration of spores is 1×10^9 spores/ml. The spore-mycelial suspension is diluted 1/1000 to yield inoculum used for the microtiter assay, having a concentration of 1×10^6 spores/ml.
Microtiter Assay—Six MULTISCREEN filtration plates (96-well MULTISCREEN-GV, clear plates with 0.22 μm membrane; Millipore Corp., Molsheim, France) are used for a three dose response protocol. This protocol and the six MULTISCREEN plates allows for duplication of the experimental results. The three actives employed are BAS49002F (kresoxim methyl at 50 wt %; BASF Corporation, Ludwigshafen, Germany), AF1912 (diiodomethyl-paratolylsulfone; Angus Chemical Company, Buffalo Grove, Ill.), and MBTC (methylenebisthiocyanate; Aldrich Chemical Company, Milwaukee, Wis.). These actives are individually diluted with water to a concentration of 40 ppm actives. Using separate dilution blocks for each active, the actives are serially diluted to reach experimental dose ranges from 10 to 0.156 ppm. Along with the treatments (actives), Sabouraud Dextrose broth (DIFCO Laboratories, Detroit Mich.) and inoculum are added to each well. The microtiter plates are incubated at 37° C. for 24 hours, and after this period a 0.1% solution of XTT (2,3-bis[2-methoxy-4-nitro-5-sulfophenyl]-2H-tetrazolium-5-carboxanilide; Sigma Chemical, Saint Louis, Mo.) and 0.01% of PMS (phenazine methosulfate; Sigma Chemical, Saint Louis, Mo.) are added to each well. The plates are incubated for approximately 3 more hours. Filtration via the MULTISCREEN plates removes the mycelial growth and nonvegetated spores of Aspergillus niger. Each microtiter well is read at 465 nm for the reduction of XTT by metabolically active cells (i.e., a color change from the untreated controls would indicate respiring fungal cells). Growth inhibition results are presented in Table 2, which represents the processed absorbance data that has been converted as a percent inhibition of fungal growth by the three actives tested (BAS49002F, AF1912, and MBTC). The dashed lines in Table 2 indicate negative inhibition values, which indicate that cells were viable, but in futile cell cycles.

With `N#CSCSC#N` [MBTC, methylenebisthiocyanate], the “percent inhibition of fungal growth” value was “— (The dashed lines in Table 2 indicate negative inhibition values, which indicate that cells were viable, but in futile cell cycles)” (0.156 ppm actives); “— (The dashed lines in Table 2 indicate negative inhibition values, which indicate that cells were viable, but in futile cell cycles)” (0.31 ppm actives); “— (The dashed lines in Table 2 indicate negative inhibition values, which indicate that cells were viable, but in futile cell cycles)” (0.625 ppm actives); “— (The dashed lines in Table 2 indicate negative inhibition values, which indicate that cells were viable, but in futile cell cycles)” (1.25 ppm actives); 86% and 84% (2.5 ppm actives); 88% and 89% (5.0 ppm actives). Moreover, the “percent inhibition of fungal growth” value (10.0 ppm actives) is 88% and 89%.
